Data: patent US8076377B2, “N,N-dimethyl imidodicarbonimidic diamide dicarboxylate, method for producing the same and pharmaceutical compositions comprising the same” (Hanall Pharmaceutical Company, Ltd., priority 2007, dated 2011)
Structures can show the parent of a compound that is named as a salt.

Key:
[1] = tested on: rabbit; conditions: oral; cited from earlier work
[2] = pH at saturation
[3] = Water content with Karl-Fisher moisture meter after exposure to temperature/relative humidity (hygroscopicity, hydrate stability)
[4] = tested on: hyperlipidemia-induced rats; test: Effect on blood lipid, oral administration for 1 week to hyperlipidemia-induced rats (blood biochemical tests); conditions: 500 mg/kg oral for 1 week, average ± standard deviation
[5] = tested on: rat; conditions: oral; cited from earlier work

Cl [Hydrochloric acid]
LD50 (50% lethal dose) [1]: LD50 900 mg/kg

CN(C)C(=N)N=C(N)N.O=C(O)CCCC(=O)O [Metformin glutarate, metformin (2:1) glutarate]
Saturation pH [2]: 10.200

CN(C)C(=N)N=C(N)N [Metformin hydrochloride, metformin hydrochloride, reference compound]
Saturation pH [2]: 2.892
water content ([3]; 40° C., 75% R.H., day 0): 0.080 wt %
water content ([3]; 40° C., 75% R.H., day 1): 0.069 wt %
water content ([3]; 40° C., 75% R.H., day 2): 0.053 wt %
water content ([3]; 40° C., 75% R.H., day 5): 0.054 wt %
water content ([3]; 60° C., 15% R.H., day 0): 0.080 wt %
water content ([3]; 60° C., 15% R.H., day 1): 0.044 wt %
water content ([3]; 60° C., 15% R.H., day 2): 0.047 wt %
water content ([3]; 60° C., 15% R.H., day 5): 0.056 wt %
ALT [4]: 49.8 ± 4.8 IU/L
AST [4]: 126.9 ± 8.4 IU/L
BUN [4]: 13.6 ± 0.4 mg/dL
CHO (Cholesterol) [4]: 277.1 ± 21.8 mg/dL
CRE [4]: 0.5 ± 0.0 mg/dL
HDL [4]: 42.5 ± 1.0 mg/dL
LDL [4]: 198.3 ± 18.5 mg/dL
TG (Triglyceride) [4]: 37.3 ± 1.5 mg/dL

CN(C)C(=N)NC(=N)N [Metformin malate, metformin (2:1) malate]
Saturation pH [2]: 3.950

O=C(O)CCCC(=O)O [glutaric acid]
LD50 (50% lethal dose) [5]: LD50 6000 mg/kg

metformin (2:1) malonate [Metformin malonate]
water content ([3]; 40° C., 75% R.H., day 0): 5.143 wt %
water content ([3]; 40° C., 75% R.H., day 1): 5.403 wt %
water content ([3]; 40° C., 75% R.H., day 2): 5.288 wt %
water content ([3]; 40° C., 75% R.H., day 5): 5.376 wt %
water content ([3]; 60° C., 15% R.H., day 0): 5.143 wt %
water content ([3]; 60° C., 15% R.H., day 1): 5.222 wt %
water content ([3]; 60° C., 15% R.H., day 2): 5.219 wt %
water content ([3]; 60° C., 15% R.H., day 5): 5.184 wt %
ALT [4]: 49.0 ± 7.0 IU/L
AST [4]: 136.6 ± 11.6 IU/L
BUN [4]: 15.3 ± 0.9 mg/dL
CHO (Cholesterol) [4]: 238.2 ± 16.4 mg/dL
CRE [4]: 0.5 ± 0.0 mg/dL
HDL [4]: 40.4 ± 1.4 mg/dL
LDL [4]: 168.3 ± 13.7 mg/dL
TG (Triglyceride) [4]: 50.3 ± 7.9 mg/dL
